Columns and labels:
[1] = species: Rattus norvegicus; assay: Displacement of radiolabelled L-T3 from thyroid hormone receptor in intact rat hepatic nuclei relative to T3
[2] = molecular target: T1, Thyroxine-binding globulin (Homo sapiens) (UniProt P05543); assay: Binding affinity to thyroxine binding globulin (unknown origin) relative to T4
T1 sequence (whole entry): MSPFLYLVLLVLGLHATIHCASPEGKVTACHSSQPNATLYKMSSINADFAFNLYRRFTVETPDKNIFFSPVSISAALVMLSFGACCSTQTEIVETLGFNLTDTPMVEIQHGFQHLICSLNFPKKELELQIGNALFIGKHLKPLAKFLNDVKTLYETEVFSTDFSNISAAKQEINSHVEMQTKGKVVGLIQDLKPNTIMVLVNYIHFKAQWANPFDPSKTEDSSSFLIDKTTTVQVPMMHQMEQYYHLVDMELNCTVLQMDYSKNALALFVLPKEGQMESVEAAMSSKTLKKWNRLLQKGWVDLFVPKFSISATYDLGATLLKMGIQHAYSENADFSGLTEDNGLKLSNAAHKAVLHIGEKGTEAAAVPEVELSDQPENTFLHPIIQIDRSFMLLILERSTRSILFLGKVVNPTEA

[3] = test system: Rattus norvegicus; assay: In vivo antigoiter activity in rat; assay type: functional

Row | RBA [1] [%] | log(%) [1] | RBA [2] [%] | log(%) [2] | SMILES | Activity [3] [%] | log(%) [3]
1 | 0.3 | -0.523 | 0.07 | -1.16 | NC(Cc1cc(I)c(Oc2ccc(O)cc2)c(I)c1)C(=O)O (centres undefined) | 0.81 | -0.092
2 |  |  |  |  | NC(Cc1cc(Br)c(Oc2cc(Br)c(O)c(I)c2)c(I)c1)C(=O)O (centres undefined) | 2.83 | 0.452
3 | 6.2 | 0.792 | 0.29 | -0.538 | Cc1cc(Oc2c(I)cc(CC(N)C(=O)O)cc2I)cc(C)c1O (centres undefined) | 9.04 | 0.956
4 |  |  |  |  | Cc1cc(Oc2c(I)cc(CC(N)C(=O)O)cc2I)ccc1N (centres undefined) | 0.036 | -1.444
5 |  |  |  |  | Cc1cc(C)cc(Oc2c(I)cc(CC(N)C(=O)O)cc2I)c1 (centres undefined) | 0.054 | -0.839
6 |  |  | 0.06 | -1.22 | NC(Cc1cc(I)c(Oc2ccc(O)c(O)c2)c(I)c1)C(=O)O (centres undefined) | 0.27 | -0.569
7 | 2.6 | 0.415 |  |  | NC(Cc1cc(I)c(Cc2cc(I)c(O)c(I)c2)c(I)c1)C(=O)O (centres undefined) |  | 
8 |  |  |  |  | NC(Cc1cc(I)c(Oc2ccccc2)c(I)c1)C(=O)O (centres undefined) | 1.24 | 0.093
9 |  |  |  |  | NC(Cc1cc(Br)c(Oc2cc(Br)c(O)c(Br)c2)c(Br)c1)C(=O)O (centres undefined) | 0.065 | -1.187
10 |  |  |  |  | NC(Cc1cc(Br)c(Oc2ccc(O)c(I)c2)c(Br)c1)C(=O)O (centres undefined) | 16.87 | 1.227
11 | 1.4 | 0.146 |  |  | NC(Cc1cc(Br)c(Oc2ccc(O)c(I)c2)c(I)c1)C(=O)O (centres undefined) | 71.98 | 1.857
12 | 0.2 | -0.699 |  |  | Cc1cccc(Oc2c(I)cc(CC(N)C(=O)O)cc2I)c1 (centres undefined) | 2.71 | 0.433
13 | 0.2 | -0.699 |  |  | NC(Cc1cc(I)c(Oc2cccc(C(F)(F)F)c2)c(I)c1)C(=O)O (centres undefined) | 13.56 | 1.132
14 |  |  |  |  | Cc1cc(Oc2c(I)cc(CC(N)C(=O)O)cc2I)cc(C)c1N (centres undefined) | 0.31 | -0.886
15 |  |  |  |  | NC(Cc1cc(I)c(Oc2cc(F)c(O)c(I)c2)c(I)c1)C(=O)O (centres undefined) | 6.03 | 0.78
16 |  |  |  |  | NC(Cc1cc(I)c(Oc2cccc(F)c2)c(I)c1)C(=O)O (centres undefined) | 1.39 | 0.143
17 |  |  |  |  | NC(Cc1cc(I)c(Oc2cccc(Cl)c2)c(I)c1)C(=O)O (centres undefined) | 7.78 | 0.891
18 | 0.1 | -1 |  |  | Cc1cc(Oc2c(C)cc(CC(N)C(=O)O)cc2C)ccc1O (centres undefined) | 0.54 | -0.268
19 |  |  |  |  | Cc1cc(CC(N)C(=O)O)cc(C)c1Oc1ccc(O)c(I)c1 (centres undefined) | 0.9 | -0.046
20 | 1.4 | 0.146 |  |  | NC(Cc1cc(I)c(Oc2ccc(O)c(C3CCCCC3)c2)c(I)c1)C(=O)O (centres undefined) |  | 
21 | 38.5 | 1.59 | 0.67 | -0.174 | CC(C)(C)c1cc(Oc2c(I)cc(CC(N)C(=O)O)cc2I)ccc1O (centres undefined) | 21.7 | 1.336

Row | RBA [1] [%] | log(%) [1] | RBA [2] [%] | log(%) [2] | SMILES | Activity [3] [%] | log(%) [3]
22 |  |  |  |  | NC(Cc1cc(Cl)c(Oc2cc(Cl)c(O)c(I)c2)c(I)c1)C(=O)O (centres undefined) | 2.27 | 0.356
23 |  |  |  |  | NC(Cc1cc(I)c(Oc2cc(F)c(O)c(F)c2)c(I)c1)C(=O)O (centres undefined) | 0.43 | -0.366
24 |  |  |  |  | NC(Cc1cc(Br)c(Oc2ccc(O)c(Br)c2)c(Br)c1)C(=O)O (centres undefined) | 4.63 | 0.666
25 | 2 | 0.301 | 0.04 | -1.4 | NC(Cc1cc(I)c(Oc2ccc(O)c(-c3ccccc3)c2)c(I)c1)C(=O)O (centres undefined) | 2.03 | 0.308
26 | 0.7 | -0.155 |  |  | Cc1cc(CC(N)C(=O)O)cc(C)c1Oc1ccc(O)c(C(C)C)c1 (centres undefined) | 3.6 | 0.556
27 |  |  |  |  | NC(Cc1cc(I)c(Oc2ccc(O)c([N+](=O)[O-])c2)c(I)c1)C(=O)O (centres undefined) | 0.18 | -0.745
28 |  |  |  |  | NC(Cc1cc(I)c(Oc2cccc(Br)c2)c(I)c1)C(=O)O (centres undefined) | 18 | 1.225
29 | 0.4 | -0.398 |  |  | NC(Cc1cc(I)c(Oc2cccc(I)c2)c(I)c1)C(=O)O (centres undefined) | 27.12 | 1.433
30 | 0.1 | -1 |  |  | Cc1cc(Oc2c(I)cc(CC(N)C(=O)O)cc2I)c(C)cc1O (centres undefined) | 0.18 | -0.745
31 |  |  |  |  | NC(Cc1cc(Cl)c(Oc2ccc(O)c(Cl)c2)c(Cl)c1)C(=O)O (centres undefined) | 0.091 | -1.041
32 |  |  |  |  | Cc1cc(CC(N)C(=O)O)cc(I)c1Oc1ccc(O)c(I)c1 (centres undefined) | 6.24 | 0.795
33 |  |  |  |  | CCC(C)c1cc(Oc2c(C)cc(CC(N)C(=O)O)cc2C)ccc1O (centres undefined) | 2.91 | 0.464
34 |  |  |  |  | NC(Cc1cc(I)c(Oc2ccc(O)c(Br)c2)c(I)c1)C(=O)O (centres undefined) | 23.78 | 1.376
35 | 0.76 | -0.119 |  |  | Nc1ccc(Oc2c(I)cc(CC(N)C(=O)O)cc2I)cc1 (centres undefined) | 0.27 | -0.569
36 |  |  |  |  | Cc1cc(CC(N)C(=O)O)cc(I)c1Oc1ccc(O)cc1 (centres undefined) | 0.093 | -1.032
37 |  |  |  |  | NC(Cc1cc(I)c(Oc2cc(Br)c(O)c(Br)c2)c(I)c1)C(=O)O (centres undefined) | 1.58 | 0.199
38 | 0.3 | -0.523 |  |  | Cc1cc(O)c(I)cc1Oc1c(I)cc(CC(N)C(=O)O)cc1I (centres undefined) | 0.36 | -0.444
39 | 8 | 0.903 |  |  | NC(Cc1cc(I)c(Oc2ccc(O)c3ccccc23)c(I)c1)C(=O)O (centres undefined) |  | 
40 | 100 | 2 |  |  | NC(Cc1cc(I)c(Sc2ccc(O)c(I)c2)c(I)c1)C(=O)O (centres undefined) | 13.82 | 1.14
41 |  |  |  |  | CCC(C)c1cc(Oc2c(I)cc(CC(N)C(=O)O)cc2I)ccc1O (centres undefined) | 79.9 | 1.902
42 | 20 | 1.3 | 0.1 | -1 | CC(C)Cc1cc(Oc2c(I)cc(CC(N)C(=O)O)cc2I)ccc1O (centres undefined) | 7.74 | 0.889

Row | RBA [1] [%] | log(%) [1] | RBA [2] [%] | log(%) [2] | SMILES | Activity [3] [%] | log(%) [3]
43 | 1.3 | 0.114 |  |  | NC(Cc1cc(I)c(Sc2ccc(O)cc2)c(I)c1)C(=O)O (centres undefined) |  | 
44 | 1.4 | 0.146 |  |  | CC(C)c1cc(Oc2c(I)cc(CC(N)C(=O)O)cc2I)cc(C(C)C)c1O (centres undefined) |  | 
45 |  |  |  |  | Cc1cc(CC(N)C(=O)O)ccc1Oc1ccc(O)c(I)c1 (centres undefined) | 0.12 | -0.921
46 |  |  |  |  | CC(C)c1cc(Oc2c(I)cc(CC(N)C(=O)O)cc2I)cc(I)c1O (centres undefined) | 55.36 | 1.743
47 | 8 | 0.903 |  |  | NC(Cc1cc(I)c(Oc2ccc(O)c3c2CCCC3)c(I)c1)C(=O)O (centres undefined) | 18.08 | 1.257
48 |  |  |  |  | NC(Cc1cc(Br)c(Oc2cc(I)c(O)c(I)c2)c(Br)c1)C(=O)O (centres undefined) | 1.97 | 0.294
49 | 1.1 | 0.041 |  |  | Cc1c(O)ccc(Oc2c(I)cc(CC(N)C(=O)O)cc2I)c1C (centres undefined) | 9.04 | 0.956
50 |  |  |  |  | COc1ccc(Oc2c(I)cc(CC(N)C(=O)O)cc2I)cc1I (centres undefined) | 11.25 | 1.051
51 | 36 | 1.56 |  |  | CC(C)c1cc(Oc2c(Br)cc(CC(N)C(=O)O)cc2Br)ccc1O (centres undefined) | 30 | 1.477
52 | 6.2 | 0.792 |  |  | NC(Cc1cc(I)c(Oc2ccc(O)c(Cl)c2)c(I)c1)C(=O)O (centres undefined) | 4.88 | 0.688
53 |  |  |  |  | NC(Cc1cc(I)c(Oc2ccc(O)c(F)c2)c(I)c1)C(=O)O (centres undefined) | 0.65 | -0.785
54 |  |  |  |  | COc1ccc(Oc2c(I)cc(CC(N)C(=O)O)cc2I)cc1C(C)(C)C (centres undefined) | 2.35 | 0.371
55 | 4.5 | 0.653 |  |  | NC(Cc1cc(I)c(Oc2cc(Cl)c(O)c(Cl)c2)c(I)c1)C(=O)O (centres undefined) | 3.8 | 0.58
56 |  |  |  |  | CCCc1cc(Oc2c(C)cc(CC(N)C(=O)O)cc2C)ccc1O (centres undefined) | 2.36 | 0.373
57 |  |  |  |  | COc1ccc(Oc2c(I)cc(CC(N)C(=O)O)cc2I)cc1C(C)C (centres undefined) | 19 | 1.279
58 | 0.2 |  |  |  | CC(C)c1cc(CC(N)C(=O)O)cc(C(C)C)c1Oc1ccc(O)c(I)c1 (centres undefined) |  | 
59 | 0.1 | -1 |  |  | Cc1cc(Oc2c(C)cc(CC(N)C(=O)O)cc2C)cc(C)c1O (centres undefined) | 0.36 | -0.444
60 |  |  |  |  | CCCc1cc(Oc2c(I)cc(CC(N)C(=O)O)cc2I)ccc1O (centres undefined) | 39.5 | 1.597
61 |  |  | 9 | 0.954 | N[C@@H](Cc1cc(I)c(Oc2ccc(O)c(I)c2)c(I)c1)C(=O)O [LIOTHYRONINE] | 100 | 2

Row | SMILES | RBA [1] [%] | log(%) [1] | RBA [2] [%] | log(%) [2] | Activity [3] [%] | log(%) [3]
62 | NC(Cc1cc(I)c(Cc2ccc(O)c(I)c2)c(I)c1)C(=O)O (centres undefined) | 250 | 2.4 |  |  | 54.25 | 1.734
63 | NC(Cc1ccc(Oc2cc(I)c(O)c(I)c2)c(I)c1)C(=O)O (centres undefined) [REVERSETRIIODOTHYRONINE] | 0.1 | -1 |  |  | 0.125 | -0.903
64 | NC(Cc1ccc(Oc2ccc(O)c(I)c2)c(I)c1)C(=O)O (centres undefined) [DIIODOTHYRONINE] | 0.5 | -0.301 |  |  | 0.056 | -1.252
